According to patent US20080119412A1, “Polypeptides for Modulating Binding of Trp Channel Proteins and Trp- Associated Proteins” (NoNO Inc., priority 2003, published 2008):
Residues, ends and D or L forms follow the SMILES beside them. *: point of attachment. Biotin = O=C1N[C@H]2[C@H](CS[C@H]2CCCCC(=O)*)N1

Legend:
Test in all cases: G3 assay titration, GST-PDZ fusion / biotinylated peptide
Format in all cases: binding
INADL d3 = target: T1, INADL d3 (Homo sapiens, UniProt Q8NI35)
T1 construct: made in house; host or cells: E. coli (DH5alpha, BL21 or JM109)
T1 sequence (Q8NI35 with tags, fused parts or gaps): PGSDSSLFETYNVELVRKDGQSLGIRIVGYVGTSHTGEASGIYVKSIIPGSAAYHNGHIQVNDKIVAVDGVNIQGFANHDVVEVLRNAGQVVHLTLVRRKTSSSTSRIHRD
Summary of the method: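 ELISA with anti-GST-captured GST-PDZ fusions (5 μg/ml), probed by biotinylated Tat-TRPM7 C-terminal peptide precomplexed 20 min with HRP-streptavidin. Binding ran 30 min at room temperature; TMB read at 450 nm. Peptide was titrated from 0.002 to 2 μM and data fitted to a binding equation.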

LIM Mystique d1 = target: T2, LIM Mystique d1 (Homo sapiens, UniProt Q96JY6)
T2 construct: made in house; host or cells: E. coli (DH5alpha, BL21 or JM109)
T2 sequence (Q96JY6 1-91): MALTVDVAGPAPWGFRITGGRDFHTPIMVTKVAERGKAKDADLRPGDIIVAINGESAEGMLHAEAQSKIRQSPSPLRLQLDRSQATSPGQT

MAST2 d1 = target: T3, MAST2 d1 (Homo sapiens, UniProt Q6P0Q8)
T3 construct: made in house; host or cells: E. coli (DH5alpha, BL21 or JM109)
T3 sequence (Q6P0Q8 with tags, fused parts or gaps): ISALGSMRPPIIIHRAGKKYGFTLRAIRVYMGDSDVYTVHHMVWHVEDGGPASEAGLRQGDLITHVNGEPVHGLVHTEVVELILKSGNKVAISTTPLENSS

Mint 1 (d1, d2) = target: T4, Mint 1 (d1, d2) (Homo sapiens, UniProt Q02410, K730E)
T4 construct: made in house; host or cells: E. coli (DH5alpha, BL21 or JM109)
T4 sequence (Q02410 651-828 K730E): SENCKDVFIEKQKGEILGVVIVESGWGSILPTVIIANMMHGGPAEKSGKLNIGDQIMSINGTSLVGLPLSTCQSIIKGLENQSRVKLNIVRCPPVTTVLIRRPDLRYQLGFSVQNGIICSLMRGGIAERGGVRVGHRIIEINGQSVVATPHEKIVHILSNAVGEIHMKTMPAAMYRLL

PAR3L d3 = target: T5, PAR3L d3 (Homo sapiens, UniProt Q8TEW8)
T5 construct: made in house; host or cells: E. coli (DH5alpha, BL21 or JM109)

SITAC-18 d2 = target: T6, SITAC-18 d2 (Homo sapiens, UniProt Q9H190)
T6 construct: made in house; host or cells: E. coli (DH5alpha, BL21 or JM109)
T6 sequence (Q9H190 with tags, fused parts or gaps): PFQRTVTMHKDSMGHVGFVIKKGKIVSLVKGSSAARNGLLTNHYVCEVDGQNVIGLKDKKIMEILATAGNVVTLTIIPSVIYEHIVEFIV

Syntrophin 1 alpha d1 = target: T7, Syntrophin 1 alpha d1 (Homo sapiens, UniProt Q13424)
T7 construct: made in house; host or cells: E. coli (DH5alpha, BL21 or JM109)
T7 sequence (Q13424 84-177): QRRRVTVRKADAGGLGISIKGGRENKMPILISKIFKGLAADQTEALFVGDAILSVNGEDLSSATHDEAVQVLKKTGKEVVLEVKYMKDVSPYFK

T5 sequence (Q8TEW8 with tags, fused parts or gaps): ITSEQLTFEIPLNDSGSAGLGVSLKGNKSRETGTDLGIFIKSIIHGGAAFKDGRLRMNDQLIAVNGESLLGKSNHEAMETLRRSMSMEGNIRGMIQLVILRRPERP

CSCC[C@H](NC(=O)[C@H](CC(C)C)NC(=O)[C@H](CCCNC(=N)N)NC(=O)[C@@H](NC(=O)[C@H](CO)NC(=O)[C@H](CC(N)=O)NC(=O)[C@@H](NC(=O)[C@H](CO)NC(=O)[C@H](CCCNC(=N)N)NC(=O)[C@H](CCCNC(=N)N)NC(=O)[C@H](CCCNC(=N)N)NC(=O)[C@H](CCC(N)=O)NC(=O)[C@H](CCCNC(=N)N)NC(=O)[C@H](CCCNC(=N)N)NC(=O)[C@H](CCCCN)NC(=O)[C@H](CCCCN)NC(=O)[C@H](CCCNC(=N)N)NC(=O)CNC(=O)[C@H](Cc1ccc(O)cc1)NC(=O)CCCC[C@@H]1SC[C@@H]2NC(=O)N[C@@H]21)[C@@H](C)O)C(C)C)C(=O)N[C@@H](CC(C)C)C(=O)O [Tat-TRPM7 peptide] (Biotin-YGRKKRRQRRRSTNSVRLML-OH)
EC50 (INADL d3): 120 nM
EC50 (LIM Mystique d1): 90 nM
EC50 (MAST2 d1): 110 nM
EC50 (Mint 1 (d1, d2)): 180 nM
EC50 (PAR3L d3): 100 nM
EC50 (SITAC-18 d2): 90 nM
EC50 (Syntrophin 1 alpha d1): 160 nM
